Data taken from ChEMBL document CHEMBL1130646, “Excellent acceleration of the Diels-Alder reaction by microwave irradiation for the synthesis of new fluorine-substituted ligands of NMDA receptor” (Bioorg Med Chem Lett, 1998).

Each molecule was assayed against Glutamate NMDA receptor (assay: Displacement of [3H]TCP from the TCP site of NMDA receptor in rat brain homogenate).
Type: tissue-based

Compound | IC50 [nM]
c1csc(C2(c3cccs3)CC3c4ccccc4C2c2cccc[n+]23)c1 (configuration not stated) | 3.6
FCCc1ccc(C2(c3cccs3)CC3c4ccccc4C2c2cccc[n+]23)s1 (stereo in doubt; 18) | 47
FCCc1ccc(C2(c3cccs3)CC3c4ccccc4C2c2cccc[n+]23)s1 (stereo in doubt; 19) | 89
OCCc1ccc(C2(c3ccc(CCO)s3)CC3c4ccccc4C2c2cccc[n+]23)s1 (configuration not stated) | 12400
OCCc1ccc(C2(c3cccs3)CC3c4ccccc4C2c2cccc[n+]23)s1 (stereo in doubt; 20) | 61
OCCc1ccc(C2(c3cccs3)CC3c4ccccc4C2c2cccc[n+]23)s1 (stereo in doubt; 21) | 141
c1ccc(C2(N3CCCCC3)CCCCC2)cc1 [PHENCYCLIDINE] | 47
